“And” between values parts separate entries of the source, which are not always exact repeats. Equal entries are not always repeated.
Tests used:
[1] = molecular target: T1, ERK2 (MAPK1) (Homo sapiens, UniProt P28482); assay: ERK2 (MAPK1) enzymatic assay (Z′-Lyte); type: biochemical
T1 construct: purchased Life technologies
Method: To assess the capacity of compounds to inhibit ERK2 enzymatic activity, Z′-Lyte biochemical assay from Life technologies was used according to manufacturer's instructions. Briefly, black 384-well plates containing 100 nl of 100× compound solution in 100% DMSO, 2.4 μl kinase buffer, 5 μl 2×MAPK1 (ERK2)/Ser/Thr 03 mixture and 2.5 μl 4×ATP solution were used. Plates were shaken for 30 seconds and incubated for 60 minutes at room temperature. Then, 5 μl of a 1:1024 dilution of Development Reagent A was added. Plates were shaken for 30 seconds and incubated for 60 minutes at room temperature. A plate reader was used to read fluorescence. […] Kinase buffer consisted of 50 mM HEPES pH 7.5, 0.01% BRIJ-35, 10 mM MgCl2, 1 mM EGTA.

[2] = system: A375 cells (malignant melanoma); assay: Cell line proliferation assay (MTT, A375); type: cell-based; settings: Homo sapiens, A-375, 72 hours
Method: A cell line assay was used to determine the capacity of compounds to inhibit cell proliferation. A375 cells (malignant melanoma) were grown to near 80% confluence and seeded at 3000 cells per 100 μl per well in DMEM with 10% FBS in 96-well flat bottom plates. Cells were incubated for 24 hours at 37° C. under 5% CO2. 100 μl compound solutions were added to cells and incubated for 72 hours at 37° C. Total volume of media was 200 μl per well. Compounds were screened in 0.15% DMSO (final) using 10 titration points in duplicate. Negative control wells consisted of vehicle only (0.15% DMSO in 10% FBS DMEM). After 72 hours of compound treatment, SDS 1% (final) was added to positive control wells for 15 minutes at 37° C. Then, medium was discarded and replaced by 100 μl per well of a MTT solution (3-[4.5-dimethylthiazol-2-yl]-2.5-diphenyltetrazolium bromide) (Sigma, Cat #M5655) at 0.5 mg/ml in 10% FBS DMEM. Cells were incubated for 4 hours at 37° C. MTT reaction was stopped and homogenized by the addition of 100 μl per well of SDS 10% 0.01M HCl. After 16 hours at 37° C., absorbance was measured at 570 nm in a Bio-Tek plate reader (PowerWave HT). […] Analysis was performed using GraphPad Prism software.

[3] = molecular target: 58 kinases; assay: Kinase panel (Z′-Lyte, Adapta/Lanthascreen), 58 kinases; type: biochemical; settings: for Kinase panel @500 nM hits > 50%: number of the 58 kinases inhibited more than 50% at 500 nM; for Kinase panel @500 nM hits > 80%: number of the 58 kinases inhibited more than 80% at 500 nM
Method: To assess the kinase selectivity of compounds, Z′-Lyte biochemical assay, and Adapta/Lanthascreen binding assays from Life technologies were used according to manufacturer's instructions. Pourcentages of inhibition at 500 nM of test compounds were performed towards 58 kinases: ABL1, ACVR1B (ALK4), AKT2 (PKB beta), AMPK (A1/132/G3), AURKA (Aurora A), AXL, BRAF, BTK, CAMK2B (CaMKII beta), CDK2/cyclin A, CHEK1 (CHK1), CLK1, CSNK1A1 (CK1 alpha 1), CSNK2A1 (CK2 alpha 1), DAPK3 (ZIPK), DYRK1A, EGFR (ErbB1), EPHB3, ERBB2 (HER2), FGFR2, FLT3, FRAP1 (mTOR), GSK3B (GSK3 beta), IGF1R, IKBKB (IKK beta), INSR, IRAK4, JAK2, KDR (VEGFR2), KIT, LCK, MAP2K1 (MEK1), MAPK10 (JNK3), MAPK11 (p38 beta), MAPKAPK2, MARK2, MET (cMet), NEK2, NTRK1 (TRKA), PAK2 (PAK65), PDGFRB (PDGFR beta), PDK1 Direct, PHKG2, PIK3CA/PIK3R1 (p110 alpha/p85 alpha), PIM1, PLK1, PRKACA (PKA), PRKCA (PKC alpha), PTK2 (FAK), RET, ROCK1, RPS6KA1 (RSK1), RPS6KB1 (p70S6K), SRC, STK3 (MST2), SYK, TEK (Tie2), TYRO3 (RSE).

[4] = molecular target: T2, hERG channel (Homo sapiens, UniProt Q12809); assay: hERG channel inhibition assay (patch clamp); type: cell-based; settings: whole-cell patch clamp, CHO cell line expressing hERG
T2 construct: a Chinese Hamster Ovary cell line stably expressing the full-length ion channel; expressed in transfected cells; host or cells: Chinese Hamster Ovary cell line
Method: Compounds were used as a 10 mM stock in DMSO before dilution in HEPES-buffered saline to 30 μM. 6-point concentration-response curves were generated using 3.16-fold serial dilutions from the top test concentration. Electrophysiological recordings were made from a Chinese Hamster Ovary cell line stably expressing the full-length ion channel. Single cell ionic currents were measured in whole-cell configuration at room temperature (21-23° C.) using a Patchliner (Nanion Technologies). The internal solution for hERG contained (mM): 120 KF, 20 KCl, 10 EGTA, 10 HEPES and was buffered to pH 7.3. The external solution (HEPES-buffered saline, HEPES-buffered saline) contained (mM): 138 NaCl, 4.5 KCl, 1.8 CaCl2), 1.0 MgCl2, 10 HEPES, 10 glucose, buffered to pH 7.4. […] Currents were measured from the step and referenced to the holding current. Compounds were then incubated for 2 minutes to achieve steady state prior to addition of the next concentration.

[5] = PK experiments in mice; type: in vivo; settings: mouse, plasma, male BalbC mice, @20 mpk PO, @1 mpk IV
Method: For intravenous injection, a single 1 mg/kg dose was injected in tail vein and blood was collected at 0.12, 0.25, 0.5, 1, 2, 4, 8 and 24 h after injection. For oral route, a single 20 mg/kg dose was administered, and blood was collected at 0.25, 0.5, 1, 2, 4, 8, 10 and 24 h after gavage. Plasma separated from blood samples was stored at −20° C. until analysis. Vials containing the study samples were retrieved and thawed to room temperature. A volume of 50 μl of sample was added to 200 μl of acetronitrile containing internal standard (tolbutamide; 25 ng/mL) and vortexed for 5 min and centrifuged at 14000 rpm for 5 min at 4° C. 200 μl of supernatant was separated and transferred to HPLC vial for analysis. For prodrug pharmacokinetics, only parent drug was dosed by HPLC.

[6] = molecular target: T3, CYP 3A4 (Homo sapiens, UniProt P08684); assay: CYP 3A4 inhibition assay in human hepatocytes; type: in vitro ADME; settings: cryopreserved human hepatocytes, midazolam probe substrate, 10 min
T3 construct: endogenous in cells; host or cells: cryopreserved human hepatocytes
Method: To assess the capacity of compounds to inhibit CYP 3A4 enzymatic activity, the test compounds (0.1 μM-25 μM) were incubated with cryopreserved human hepatocytes for 10 min in the presence of the specific CYP3A4 probe substrate, midazolam. 1-Hydroxymidazolam was monitored by LC-MS/MS and a decrease in the formation of the metabolite compared to the vehicle control was used to calculate an IC50 value.

[7] = system: Caco 2 cell lines; settings: Caco-2, pH 7.4
Method: Caco 2 cell lines were used for the in vitro transport studies and were obtained from ATCC. Cells were split every other day at a split ratio of 1:3-1:5 and grown in Dulbecco's Modified Eagle Medium (GlutaMAX I, 4,500 mg/L D-glucose, sodium pyruvate.) supplemented with 10% FBS in the presence of antibiotics. For transport studies, cells were seeded onto polycarbonate Transwell filter membranes (Millipore) at a density of 60,000 cells/well. After 24 h post seeding, changed medium and cultured for another 21 days before transport experiments. For transport studies, donor solutions were prepared by diluting the stock solutions of test compounds in transport medium (HBSS buffer with 10 mM HEPES, pH 7.4). Receiver solutions were the same HBSS buffer with 10 mM HEPES, pH 7.4. The transport of test compounds (5 μM) was measured in duplicate in two directions [apical to basolateral (A→B) and basolateral to apical (B→A)].
The permeability coefficient for membrane transport of test compounds was determined using the following equation: Papp (cm/sec)=(Vr/CO) (1/S) (dC/dt); Papp=apparent permeability, Vr=volume of medium in the receiver chamber, CO=PAR of the test drug in the receiver chamber, S=surface area of monolayer, dC/dt=drug PAR in the receiver chamber with time). Efflux Ratio was defined as: Efflux Ratio=Papp B-A/Papp A-B Bioanalysis was done on LC-MS/MS.

T1 sequence (P28482 whole entry): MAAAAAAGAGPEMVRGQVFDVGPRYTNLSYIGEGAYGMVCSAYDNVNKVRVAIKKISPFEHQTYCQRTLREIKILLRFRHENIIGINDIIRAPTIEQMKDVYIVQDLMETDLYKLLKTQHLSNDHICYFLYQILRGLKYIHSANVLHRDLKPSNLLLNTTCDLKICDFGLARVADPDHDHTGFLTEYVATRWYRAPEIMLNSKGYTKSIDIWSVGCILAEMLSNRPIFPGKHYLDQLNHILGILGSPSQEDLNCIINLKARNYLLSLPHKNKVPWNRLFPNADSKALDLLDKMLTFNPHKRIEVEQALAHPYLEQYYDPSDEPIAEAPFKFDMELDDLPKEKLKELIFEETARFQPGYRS
T2 sequence (Q12809 whole entry): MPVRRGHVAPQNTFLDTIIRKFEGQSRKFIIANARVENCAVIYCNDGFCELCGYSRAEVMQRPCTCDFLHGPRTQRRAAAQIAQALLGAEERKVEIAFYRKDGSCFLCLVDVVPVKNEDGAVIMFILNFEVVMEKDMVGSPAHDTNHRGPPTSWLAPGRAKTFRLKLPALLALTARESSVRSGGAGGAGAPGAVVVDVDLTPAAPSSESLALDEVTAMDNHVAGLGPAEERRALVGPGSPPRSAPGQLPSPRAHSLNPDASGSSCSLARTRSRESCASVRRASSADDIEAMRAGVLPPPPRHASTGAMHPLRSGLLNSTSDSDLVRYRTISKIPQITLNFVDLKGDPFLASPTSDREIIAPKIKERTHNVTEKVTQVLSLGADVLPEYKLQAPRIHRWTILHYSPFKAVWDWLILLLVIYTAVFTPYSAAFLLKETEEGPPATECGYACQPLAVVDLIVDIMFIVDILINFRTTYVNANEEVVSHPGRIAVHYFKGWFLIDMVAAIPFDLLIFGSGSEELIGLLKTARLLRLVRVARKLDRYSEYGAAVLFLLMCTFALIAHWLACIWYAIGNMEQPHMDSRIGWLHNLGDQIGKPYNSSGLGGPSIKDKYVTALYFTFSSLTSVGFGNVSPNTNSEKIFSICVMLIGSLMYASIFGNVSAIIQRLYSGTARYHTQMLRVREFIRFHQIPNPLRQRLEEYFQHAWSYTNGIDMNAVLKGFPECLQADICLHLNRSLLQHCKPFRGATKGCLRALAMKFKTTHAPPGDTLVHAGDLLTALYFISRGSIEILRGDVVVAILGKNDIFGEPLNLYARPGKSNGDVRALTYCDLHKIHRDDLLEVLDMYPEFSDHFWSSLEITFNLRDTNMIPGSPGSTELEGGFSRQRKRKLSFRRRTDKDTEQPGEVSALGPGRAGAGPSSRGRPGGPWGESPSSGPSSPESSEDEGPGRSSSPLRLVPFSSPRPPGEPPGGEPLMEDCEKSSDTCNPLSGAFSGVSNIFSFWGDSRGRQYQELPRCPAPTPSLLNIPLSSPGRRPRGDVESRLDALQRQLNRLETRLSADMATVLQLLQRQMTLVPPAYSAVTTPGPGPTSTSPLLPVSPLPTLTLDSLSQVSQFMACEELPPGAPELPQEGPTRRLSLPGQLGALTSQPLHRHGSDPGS
T3 sequence (P08684 whole entry): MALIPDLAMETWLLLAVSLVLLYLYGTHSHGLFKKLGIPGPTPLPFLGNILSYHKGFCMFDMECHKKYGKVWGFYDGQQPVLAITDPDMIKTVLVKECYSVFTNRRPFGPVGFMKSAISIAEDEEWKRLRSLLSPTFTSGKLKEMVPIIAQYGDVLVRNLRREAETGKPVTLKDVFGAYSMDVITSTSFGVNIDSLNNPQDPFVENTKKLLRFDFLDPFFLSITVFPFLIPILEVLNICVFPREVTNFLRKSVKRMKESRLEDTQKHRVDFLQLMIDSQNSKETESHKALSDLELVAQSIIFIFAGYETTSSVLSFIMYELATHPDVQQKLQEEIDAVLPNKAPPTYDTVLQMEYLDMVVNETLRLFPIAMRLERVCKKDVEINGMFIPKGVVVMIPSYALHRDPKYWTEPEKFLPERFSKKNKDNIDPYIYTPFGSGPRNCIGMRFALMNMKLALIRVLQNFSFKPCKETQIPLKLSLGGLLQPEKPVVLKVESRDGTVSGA

| Molecule | IC50 [1] [nM] | IC50 [2] [nM] | Kinase panel @500 nM hits > 50% [3] | Kinase panel @500 nM hits > 80% [3] | bioavailability ([5]; 20 mg/kg) [%] | Cmax [5] | half-life [5] [h] | IC50 [6] [nM] | Papp A-B [7] | IC50 [4] [nM] |
| --- | --- | --- | --- | --- | --- | --- | --- | --- | --- | --- |
| CN(C)C[C@H](c1cccc(F)c1)n1ccc(-c2c[nH]c3ncc(N4CCOCC4)cc23)cc1=O [Compound no1 (S), (S)-1-(2-(dimethylamino)-1-(3-fluorophenyl)ethyl)-4-(5-morpholino-1H-pyrrolo[2,3-b]pyridin-3-yl)pyridin-2(1H)-one] | 1.2 | 107 | 2/58 | 1/58 | – | – | – | – | – | – |
| CN(C)C[C@H](c1ccc(F)c(F)c1)n1ccc(-c2c[nH]c3ncc(N4CCOCC4)cc23)cc1=O [Compound no17 (S), (S)-1-(1-(3,4-difluorophenyl)-2-(dimethylamino)ethyl)-4-(5-morpholino-1H-pyrrolo[2,3-b]pyridin-3-yl)pyridin-2(1H)-one] | 2.7 | 103 | – | – | – | – | – | – | – | – |
| CCN(C)C[C@H](c1cccc(Cl)c1)n1ccc(-c2c[nH]c3ncc(N4CCOCC4)cc23)cc1=O [Compound no15 (S), (S)-1-(1-(3-chlorophenyl)-2-(ethyl(methyl)amino)ethyl)-4-(5-morpholino-1H-pyrrolo[2,3-b]pyridin-3-yl)pyridin-2(1H)-one] | 3.5 | 51 | – | – | – | – | – | – | – | – |
| (S)-1-(2-amino-1-(3-chlorophenyl)ethyl)-4-(5-morpholino-1H-pyrrolo[2,3-b]pyridin-3-yl)pyridin-2(1H)-one [Comparative compound A (S), reference compound] | – | – | 26/58 | 15/58 | – | – | – | – | < 10 10^−6 cm/s | – |
| CN(C)C[C@H](c1cccc(Cl)c1)n1ccc(-c2c[nH]c3ncc(N4CCOCC4)cc23)cc1=O [Compound no2 (S), (S)-1-(1-(3-chlorophenyl)-2-(dimethylamino)ethyl)-4-(5-morpholino-1H-pyrrolo[2,3-b]pyridin-3-yl)pyridin-2(1H)-one] | 2.1 | 35 | 10/58 | 1/58 | – | – | – | – | – | – |

The remaining molecules from weak to strong by IC50 [1], led by results:

| IC50 [1] [nM] | IC50 [2] [nM] | Kinase panel @500 nM hits > 50% [3] | Kinase panel @500 nM hits > 80% [3] | bioavailability ([5]; 20 mg/kg) [%] | Cmax [5] | half-life [5] [h] | IC50 [6] [nM] | Papp A-B [7] | Molecule | IC50 [4] [nM] |
| --- | --- | --- | --- | --- | --- | --- | --- | --- | --- | --- |
| 4.5 | 77 | 7/58 | 1/58 | 9.2 | 1730 ng/mL and 3.3 µM | 1.83 | 9500 | – | CN(C)C[C@H](c1cccc(Br)c1)n1ccc(-c2c[nH]c3ncc(N4CCOCC4)cc23)cc1=O [Compound no5 (S), (S)-1-(1-(3-bromophenyl)-2-(dimethylamino)ethyl)-4-(5-morpholino-1H-pyrrolo[2,3-b]pyridin-3-yl)pyridin-2(1H)-one] | 20500 |
| 4.1 | 53 | 4/58 | 1/58 | – | – | – | – | – | CN(C)C[C@H](c1ccc(F)c(Br)c1)n1ccc(-c2c[nH]c3ncc(N4CCOCC4)cc23)cc1=O [Compound no7 (S), (S)-1-(1-(3-bromo-4-fluorophenyl)-2-(dimethylamino)ethyl)-4-(5-morpholino-1H-pyrrolo[2,3-b]pyridin-3-yl)pyridin-2(1H)-one] | – |
| 3.2 | 132 | 6/58 | 1/58 | – | – | – | – | – | CN(C)C[C@H](c1cc(Cl)cc(Cl)c1)n1ccc(-c2c[nH]c3ncc(N4CCOCC4)cc23)cc1=O [Compound no3 (S), (S)-1-(1-(3,5-dichlorophenyl)-2-(dimethylamino)ethyl)-4-(5-morpholino-1H-pyrrolo[2,3-b]pyridin-3-yl)pyridin-2(1H)-one] | – |
| 3.1 | 72 | 5/58 | 1/58 | – | – | – | – | – | CN(C)C[C@H](c1ccc(Cl)c(Cl)c1)n1ccc(-c2c[nH]c3ncc(N4CCOCC4)cc23)cc1=O [Compound no4 (S), (S)-1-(1-(3,4-dichlorophenyl)-2-(dimethylamino)ethyl)-4-(5-morpholino-1H-pyrrolo[2,3-b]pyridin-3-yl)pyridin-2(1H)-one] | – |
| 2.4 | 42 | – | – | – | – | – | – | – | CN(C)C[C@H](c1cccc(I)c1)n1ccc(-c2c[nH]c3ncc(N4CCOCC4)cc23)cc1=O [Compound no6 (S), (S)-1-(2-(dimethylamino)-1-(3-iodophenyl)ethyl)-4-(5-morpholino-1H-pyrrolo[2,3-b]pyridin-3-yl)pyridin-2(1H)-one] | – |
| 2.2 | 64 | 7/58 | 1/58 | – | – | – | – | – | CN(C)C[C@H](c1ccc(F)c(I)c1)n1ccc(-c2c[nH]c3ncc(N4CCOCC4)cc23)cc1=O [Compound no8 (S), (S)-1-(2-(dimethylamino)-1-(4-fluoro-3-iodophenyl)ethyl)-4-(5-morpholino-1H-pyrrolo[2,3-b]pyridin-3-yl)pyridin-2(1H)-one] | – |

From patent publication US11827637B2, “Azaindole derivatives and their use as ERK kinase inhibitors” (AGV Discovery, priority 2022, dated 2023)
